The values that follow come from ChEMBL document CHEMBL1909046, “DrugMatrix in vitro pharmacology data”.

The nature of data set [1]: DRUGMATRIX: Calcium Channel Type L, Benzothiazepine radioligand binding (ligand: [3H] Diltiazem). The class given is cell membranes, Rattus norvegicus, Wistar, Brain, Membrane. The note with it: Not Active = under 50% inhibition at 10 µM.
Data set [2] has as its target Sodium-dependent dopamine transporter (Homo sapiens, UniProt Q01959). Kind of data set: DRUGMATRIX: Dopamine Transporter radioligand binding (ligand: [125I] RTI-55). Format: cell membranes, CHO-K1, Membrane. The following applies: cho-k1; Not Active = under 50% inhibition at 10 µM.
For data set [3], the target named is C-C chemokine receptor type 2 (Homo sapiens, UniProt P41597). Format: cell membranes, CHO-K1, Membrane. The note with it: cho-k1. Also: in other assays of this panel Not Active means under 50% inhibition at 10 µM.
C-C chemokine receptor type 2, sequence (P41597 whole entry): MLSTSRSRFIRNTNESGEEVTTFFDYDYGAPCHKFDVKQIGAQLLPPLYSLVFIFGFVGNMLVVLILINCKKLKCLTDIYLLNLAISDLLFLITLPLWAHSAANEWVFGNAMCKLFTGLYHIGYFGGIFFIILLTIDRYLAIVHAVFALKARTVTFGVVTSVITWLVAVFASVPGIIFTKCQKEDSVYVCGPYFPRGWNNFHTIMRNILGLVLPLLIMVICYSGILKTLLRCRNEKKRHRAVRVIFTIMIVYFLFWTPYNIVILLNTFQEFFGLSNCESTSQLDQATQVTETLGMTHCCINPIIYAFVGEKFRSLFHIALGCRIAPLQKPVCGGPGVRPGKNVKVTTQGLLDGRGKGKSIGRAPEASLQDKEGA
Data set [4] has as its target 5-hydroxytryptamine receptor 4 (Cavia porcellus, UniProt O70528). The class given is cell membranes, Dunkin-Hartley, Striatum, Membrane. Also: in other assays of this panel Not Active means under 50% inhibition at 10 µM.
The target of another data set is Cytochrome P450 2E1 (Homo sapiens, UniProt P05181). The following applies: bti-tn-5b1-4. Also: in other assays of this panel Not Active means under 50% inhibition at 10 µM.
Cytochrome P450 2E1, sequence (P05181 whole entry): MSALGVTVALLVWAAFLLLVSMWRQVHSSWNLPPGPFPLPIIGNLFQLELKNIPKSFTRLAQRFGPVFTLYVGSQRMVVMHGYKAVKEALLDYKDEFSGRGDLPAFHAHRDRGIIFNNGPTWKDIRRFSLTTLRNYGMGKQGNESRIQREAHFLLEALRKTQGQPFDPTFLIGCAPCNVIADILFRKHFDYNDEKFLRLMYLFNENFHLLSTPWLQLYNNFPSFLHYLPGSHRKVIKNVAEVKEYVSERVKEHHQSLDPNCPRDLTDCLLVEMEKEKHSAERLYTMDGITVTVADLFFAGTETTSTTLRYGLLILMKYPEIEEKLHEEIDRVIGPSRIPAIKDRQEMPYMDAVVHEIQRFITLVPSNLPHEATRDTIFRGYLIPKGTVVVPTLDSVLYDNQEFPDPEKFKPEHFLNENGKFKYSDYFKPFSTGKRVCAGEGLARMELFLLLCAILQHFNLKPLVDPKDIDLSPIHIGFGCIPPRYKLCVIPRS
A further data set addresses T1, B2 bradykinin receptor (Homo sapiens, UniProt P30411).
T1 sequence (P30411 whole entry): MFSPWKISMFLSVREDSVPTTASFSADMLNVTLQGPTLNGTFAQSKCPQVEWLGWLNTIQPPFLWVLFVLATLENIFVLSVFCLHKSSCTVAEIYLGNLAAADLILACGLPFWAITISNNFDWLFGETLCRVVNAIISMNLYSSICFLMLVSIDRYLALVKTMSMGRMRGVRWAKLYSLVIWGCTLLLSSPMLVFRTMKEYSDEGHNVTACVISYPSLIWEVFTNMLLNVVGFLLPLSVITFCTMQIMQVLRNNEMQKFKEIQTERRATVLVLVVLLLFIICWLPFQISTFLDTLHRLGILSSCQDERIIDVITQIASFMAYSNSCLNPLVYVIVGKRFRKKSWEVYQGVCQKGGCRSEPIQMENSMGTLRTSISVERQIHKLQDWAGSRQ
Format: cell membranes, Membrane. The note with it: chem-1.

Data set [5] concerns the target Matrix metalloproteinase-9 (Homo sapiens, UniProt P14780). The class given is cell-based.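 Also: inhibition of isolated MMP-9 enzyme activity toward a synthetic peptide substrate, from the DrugMatrix protease screening panel; in other assays of this panel Not Active means under 50% inhibition at 10 µM.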
In data set [6] the target is T2, Receptor-type tyrosine-protein phosphatase C (Homo sapiens, UniProt P08575).
T2 sequence (P08575 whole entry): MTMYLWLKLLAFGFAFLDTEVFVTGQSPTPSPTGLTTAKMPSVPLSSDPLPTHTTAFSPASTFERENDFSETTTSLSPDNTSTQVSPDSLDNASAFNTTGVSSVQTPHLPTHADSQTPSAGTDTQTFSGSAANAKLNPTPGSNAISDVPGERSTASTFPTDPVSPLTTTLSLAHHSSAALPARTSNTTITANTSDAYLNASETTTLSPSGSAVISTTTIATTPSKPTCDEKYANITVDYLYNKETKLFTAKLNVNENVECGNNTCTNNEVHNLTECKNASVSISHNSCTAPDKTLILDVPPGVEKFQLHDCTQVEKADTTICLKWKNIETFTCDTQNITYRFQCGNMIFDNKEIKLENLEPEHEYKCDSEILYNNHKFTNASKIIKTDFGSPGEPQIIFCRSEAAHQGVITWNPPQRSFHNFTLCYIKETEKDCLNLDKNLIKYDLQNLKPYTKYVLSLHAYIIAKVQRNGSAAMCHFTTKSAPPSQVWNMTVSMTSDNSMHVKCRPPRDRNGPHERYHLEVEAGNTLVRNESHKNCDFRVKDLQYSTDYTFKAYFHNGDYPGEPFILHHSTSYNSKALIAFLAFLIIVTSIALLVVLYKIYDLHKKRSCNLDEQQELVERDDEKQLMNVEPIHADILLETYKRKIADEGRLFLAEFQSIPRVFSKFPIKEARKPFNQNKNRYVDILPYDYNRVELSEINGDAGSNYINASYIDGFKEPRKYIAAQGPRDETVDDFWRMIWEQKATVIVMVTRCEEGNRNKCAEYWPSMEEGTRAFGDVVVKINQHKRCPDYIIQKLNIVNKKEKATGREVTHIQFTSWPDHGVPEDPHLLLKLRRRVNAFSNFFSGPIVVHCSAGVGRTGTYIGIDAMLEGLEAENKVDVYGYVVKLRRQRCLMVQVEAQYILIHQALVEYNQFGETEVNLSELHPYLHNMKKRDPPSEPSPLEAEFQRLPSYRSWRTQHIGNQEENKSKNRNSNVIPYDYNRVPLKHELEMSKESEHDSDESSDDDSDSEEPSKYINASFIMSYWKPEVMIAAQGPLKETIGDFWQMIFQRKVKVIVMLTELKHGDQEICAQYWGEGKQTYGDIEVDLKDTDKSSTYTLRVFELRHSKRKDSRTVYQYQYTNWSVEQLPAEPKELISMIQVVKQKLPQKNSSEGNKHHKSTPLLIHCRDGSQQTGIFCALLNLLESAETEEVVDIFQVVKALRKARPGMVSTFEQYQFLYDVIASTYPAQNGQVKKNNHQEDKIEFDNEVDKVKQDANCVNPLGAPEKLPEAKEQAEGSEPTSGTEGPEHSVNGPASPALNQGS
Set-up: species or system Escherichia coli.

Data set [7] has as its target C-C chemokine receptor type 5 (Homo sapiens, UniProt P51681). Format: cell membranes, Membrane. The note with it: hek293. Also: in other assays of this panel Not Active means under 50% inhibition at 10 µM.
Data set [8] deals with T3, Muscarinic acetylcholine receptor M4 (Homo sapiens, UniProt P08173).
T3 sequence (P08173 whole entry): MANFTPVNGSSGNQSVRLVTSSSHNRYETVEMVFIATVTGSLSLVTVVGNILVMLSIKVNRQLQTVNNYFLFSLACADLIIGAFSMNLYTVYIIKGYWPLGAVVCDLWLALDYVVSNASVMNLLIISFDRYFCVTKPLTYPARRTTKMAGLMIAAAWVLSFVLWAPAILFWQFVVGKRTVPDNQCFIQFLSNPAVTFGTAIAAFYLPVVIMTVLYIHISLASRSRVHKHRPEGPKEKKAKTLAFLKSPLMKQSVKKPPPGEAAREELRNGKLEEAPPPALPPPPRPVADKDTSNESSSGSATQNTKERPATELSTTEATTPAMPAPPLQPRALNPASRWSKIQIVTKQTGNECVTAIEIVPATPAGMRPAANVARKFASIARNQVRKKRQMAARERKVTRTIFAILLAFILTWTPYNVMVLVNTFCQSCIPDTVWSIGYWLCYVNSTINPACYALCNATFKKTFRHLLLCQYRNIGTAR
The class given is cell membranes, CHO-K1, Membrane.

The target of the next data set is D(1A) dopamine receptor (Homo sapiens, UniProt P21728). Kind of data set: DRUGMATRIX: Dopamine D1 radioligand binding (ligand: [3H] SCH-23390). The class given is cell membranes, CHO, Membrane. The note with it: cho; Not Active = under 50% inhibition at 10 µM.
D(1A) dopamine receptor, sequence (P21728 whole entry): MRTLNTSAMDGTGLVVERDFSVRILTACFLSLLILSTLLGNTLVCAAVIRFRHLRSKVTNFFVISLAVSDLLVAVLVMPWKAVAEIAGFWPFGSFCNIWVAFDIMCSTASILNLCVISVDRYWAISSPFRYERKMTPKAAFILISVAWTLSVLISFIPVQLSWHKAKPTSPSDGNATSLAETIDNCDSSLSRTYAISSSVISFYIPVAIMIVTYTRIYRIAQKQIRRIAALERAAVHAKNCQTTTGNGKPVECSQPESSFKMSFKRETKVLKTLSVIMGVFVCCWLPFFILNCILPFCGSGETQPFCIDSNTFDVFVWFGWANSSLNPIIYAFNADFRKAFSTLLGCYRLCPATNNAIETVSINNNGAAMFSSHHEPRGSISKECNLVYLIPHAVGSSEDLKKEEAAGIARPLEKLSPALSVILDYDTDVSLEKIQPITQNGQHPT
Data set [9] is described as follows: DRUGMATRIX: Glutamate, NMDA, Phencyclidine radioligand binding (ligand: [3H] TCP). Format: cell membranes, Rattus norvegicus, Wistar, Cerebral cortex, Membrane. The following applies: Not Active = under 50% inhibition at 10 µM.

C-C chemokine receptor type 5, sequence (P51681 whole entry): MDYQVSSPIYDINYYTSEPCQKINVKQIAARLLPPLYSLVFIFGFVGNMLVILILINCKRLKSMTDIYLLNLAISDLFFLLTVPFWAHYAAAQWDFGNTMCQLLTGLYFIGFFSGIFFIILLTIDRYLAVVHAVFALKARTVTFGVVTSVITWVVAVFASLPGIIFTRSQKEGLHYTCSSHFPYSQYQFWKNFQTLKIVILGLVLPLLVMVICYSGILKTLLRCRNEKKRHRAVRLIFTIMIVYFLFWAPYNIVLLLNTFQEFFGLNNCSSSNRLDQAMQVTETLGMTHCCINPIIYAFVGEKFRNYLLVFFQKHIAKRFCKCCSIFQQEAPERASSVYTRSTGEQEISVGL
Matrix metalloproteinase-9, sequence (P14780 whole entry): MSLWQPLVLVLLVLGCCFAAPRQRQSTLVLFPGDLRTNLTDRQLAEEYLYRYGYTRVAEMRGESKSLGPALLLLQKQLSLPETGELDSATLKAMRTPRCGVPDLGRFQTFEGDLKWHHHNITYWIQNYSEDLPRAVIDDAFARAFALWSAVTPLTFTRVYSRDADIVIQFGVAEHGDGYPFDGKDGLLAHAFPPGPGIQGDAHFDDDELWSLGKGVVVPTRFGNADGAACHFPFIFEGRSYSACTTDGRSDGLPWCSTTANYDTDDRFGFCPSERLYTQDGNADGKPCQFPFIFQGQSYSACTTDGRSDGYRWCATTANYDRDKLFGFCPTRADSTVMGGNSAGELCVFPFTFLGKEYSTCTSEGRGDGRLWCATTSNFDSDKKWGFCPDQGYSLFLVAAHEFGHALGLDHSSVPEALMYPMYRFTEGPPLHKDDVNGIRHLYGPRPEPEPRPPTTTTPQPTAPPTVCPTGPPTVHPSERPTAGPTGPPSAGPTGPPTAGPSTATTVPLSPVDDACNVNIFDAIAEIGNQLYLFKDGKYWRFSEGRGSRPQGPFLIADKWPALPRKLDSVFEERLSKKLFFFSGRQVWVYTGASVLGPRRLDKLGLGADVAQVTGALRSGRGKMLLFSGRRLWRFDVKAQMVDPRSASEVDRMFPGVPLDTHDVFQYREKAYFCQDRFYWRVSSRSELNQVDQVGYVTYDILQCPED
Sodium-dependent dopamine transporter, sequence (Q01959 whole entry): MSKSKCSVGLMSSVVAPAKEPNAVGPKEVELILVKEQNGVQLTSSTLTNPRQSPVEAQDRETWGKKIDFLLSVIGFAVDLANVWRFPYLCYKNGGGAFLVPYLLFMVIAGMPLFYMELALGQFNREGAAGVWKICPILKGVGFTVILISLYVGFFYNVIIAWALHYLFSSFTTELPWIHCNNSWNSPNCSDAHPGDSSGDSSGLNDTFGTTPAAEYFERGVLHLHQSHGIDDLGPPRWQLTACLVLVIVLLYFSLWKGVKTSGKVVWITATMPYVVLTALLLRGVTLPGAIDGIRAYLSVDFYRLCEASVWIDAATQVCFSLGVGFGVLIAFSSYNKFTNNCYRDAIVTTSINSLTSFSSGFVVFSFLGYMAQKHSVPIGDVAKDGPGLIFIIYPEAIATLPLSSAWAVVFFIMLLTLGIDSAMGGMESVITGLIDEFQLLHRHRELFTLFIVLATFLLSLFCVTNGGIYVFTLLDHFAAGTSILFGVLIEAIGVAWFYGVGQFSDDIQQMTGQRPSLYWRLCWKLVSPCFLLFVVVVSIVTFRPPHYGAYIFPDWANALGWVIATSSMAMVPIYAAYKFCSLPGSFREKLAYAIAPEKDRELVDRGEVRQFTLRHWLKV
5-hydroxytryptamine receptor 4, sequence (O70528 whole entry): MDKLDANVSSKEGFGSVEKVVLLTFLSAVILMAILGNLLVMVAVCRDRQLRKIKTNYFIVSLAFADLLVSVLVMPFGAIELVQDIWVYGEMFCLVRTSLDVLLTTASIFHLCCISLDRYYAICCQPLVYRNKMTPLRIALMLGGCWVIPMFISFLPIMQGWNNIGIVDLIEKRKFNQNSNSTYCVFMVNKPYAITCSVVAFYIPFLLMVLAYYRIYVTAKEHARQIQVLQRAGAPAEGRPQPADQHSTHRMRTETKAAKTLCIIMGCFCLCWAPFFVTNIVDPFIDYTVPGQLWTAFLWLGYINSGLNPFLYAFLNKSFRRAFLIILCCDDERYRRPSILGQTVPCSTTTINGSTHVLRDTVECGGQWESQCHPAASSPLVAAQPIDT

In general, IC50 refers to the point on the concentration scale where inhibition reaches its midpoint. As a reminder, the Ki is the equilibrium dissociation constant of an inhibitor or competing ligand from its target. Take `CC=CC(=O)N(CC)c1ccccc1C`: the IC50 result (in [1]; in data set [2]; in data set [3]; in data set [4]; at Cytochrome P450 2E1; against B2 bradykinin receptor) was “Not Active” in each case. Also, the IC50 entry (in [5]; in [6]; in data set [7]; in [8] (cho-k1); on D(1A) dopamine receptor; in [9]) was “Not Active” each time. Further, the inhibition constant Ki entry (in [1]; at Cytochrome P450 2E1; in [9]) was “Not Active” in each case.
With `COc1ccc2c(c1)c(CC(=O)OCC(=O)O)c(C)n2C(=O)c1ccc(Cl)cc1` [ACEMETACIN], the half-maximal inhibitory concentration (IC50) result (in data set [1]; in data set [2]; in [3]; in [4]; against Cytochrome P450 2E1; at B2 bradykinin receptor) was “Not Active” throughout. Further, the IC50 result (in data set [5]; in data set [6]; in data set [7]; in data set [8] (cho-k1); on D(1A) dopamine receptor; in data set [9]) was “Not Active” throughout. For the same molecule, the Ki result (in data set [1]; on Cytochrome P450 2E1; in data set [9]) was “Not Active” throughout.
Take `CCCSc1ccc2nc(NC(=O)OC)[nH]c2c1` [ALBENDAZOLE]: the IC50 entry (in data set [1]; in data set [2]; in data set [3]; in data set [4]; against Cytochrome P450 2E1; against B2 bradykinin receptor) was “Not Active” throughout. The IC50 entry (in data set [5]; in data set [6]; in data set [7]; in [8] (cho-k1); on D(1A) dopamine receptor; in data set [9]) was “Not Active” throughout. In addition, the Ki entry (in data set [1]; at Cytochrome P450 2E1; in data set [9]) was “Not Active” throughout.
In the case of `N=C(N)NCCCCNC(=N)N.O=S(=O)(O)O` [ARCAINE SULFATE], the half-maximal inhibitory concentration (IC50) result (in data set [1]; in data set [2]; in data set [3]; in data set [4]; against Cytochrome P450 2E1; at B2 bradykinin receptor) was “Not Active” in each case. In addition, the 50% inhibitory concentration (IC50) entry (in [5]; in data set [6]; in [7]; in data set [8] (cho-k1); on D(1A) dopamine receptor; in data set [9]) was “Not Active” in each case. For the same molecule, the inhibitory constant (Ki) entry (in data set [1]; at Cytochrome P450 2E1; in data set [9]) was “Not Active” each time.
`CC(C)(Oc1ccc(CCNC(=O)c2ccc(Cl)cc2)cc1)C(=O)O` [BEZAFIBRATE]: the half-maximal inhibitory concentration (IC50) result (in [1]; in [2]; in data set [3]; in data set [4]; against Cytochrome P450 2E1; at B2 bradykinin receptor) was “Not Active” throughout. The concentration for half-maximal inhibition (IC50) entry (in data set [5]; in [6]; in data set [7]; in [8] (cho-k1); on D(1A) dopamine receptor; in data set [9]) was “Not Active” throughout. Moreover, the inhibition constant Ki entry (in data set [1]; on Cytochrome P450 2E1; in data set [9]) was “Not Active” in each case.
Turning to `O=P1(NCCCl)OCCCN1CCCl` (stereo not drawn) [IFOSFAMIDE], the IC50 result (in data set [1]; in data set [2]; in data set [3]; in data set [4]; against B2 bradykinin receptor; in [5]) was “Not Active” in each case. In addition, the 50% inhibitory concentration (IC50) result (in [6]; in data set [7]; in data set [8] (cho-k1); at D(1A) dopamine receptor; in data set [9]) was “Not Active” throughout. For the same molecule, the Ki result in data set [1] and in [9] was “Not Active” each time.
Take `Fc1ccc([C@@H]2CCNC[C@H]2COc2ccc3c(c2)OCO3)cc1` [PAROXETINE]: the IC50 in data set [1] (read-out: IC50) is 373 nM; in data set [3], “Not Active”; in [4] it was “Not Active”; against Cytochrome P450 2E1, “Not Active”; against B2 bradykinin receptor, “Not Active”; in data set [5], “Not Active”. For the same molecule, the half-inhibitory concentration (IC50) entry in data set [6] is “Not Active”; in data set [7] it was “Not Active”; in [8] (read-out: IC50) it was 244 nM; on D(1A) dopamine receptor it was “Not Active”; in [9], “Not Active”. The inhibition constant Ki in data set [1] (read-out: Ki) is 331 nM; on Cytochrome P450 2E1 it was “Not Active”; in data set [8] (read-out: Ki) it was 34 nM; in [9], “Not Active”.
